For assay [1], the target named is T1, thromboxane A2 (TxA2) receptor (Cavia porcellus, UniProt A0A286Y4I8).
T1 construct: to obtain washed platelets; from tissue; host or cells: washed platelets of male Hartley guinea pigs
T1 sequence (A0A286Y4I8 1-347): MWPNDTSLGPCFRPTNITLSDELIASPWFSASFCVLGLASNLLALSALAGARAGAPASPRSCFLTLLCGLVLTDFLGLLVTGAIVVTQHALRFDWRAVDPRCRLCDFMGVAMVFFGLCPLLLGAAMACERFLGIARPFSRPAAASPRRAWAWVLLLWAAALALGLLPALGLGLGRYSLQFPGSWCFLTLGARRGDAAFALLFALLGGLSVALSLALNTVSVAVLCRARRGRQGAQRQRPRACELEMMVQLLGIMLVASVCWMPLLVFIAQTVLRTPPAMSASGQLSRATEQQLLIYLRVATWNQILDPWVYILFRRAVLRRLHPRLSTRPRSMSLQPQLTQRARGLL
In words: TxA2 antagonist action by binding assay. Conditions: washed guinea pig platelets, 1 nM [3H]-SQ29,548, 45 minutes at 25° C. The method, then: (1) TxA2 antagonist action by binding assay Guinea pigs (Hartley; male; body weight=approximately 500 g) were anesthetized with ether, and the blood was collected into sodium citrate (final concentration=0.38%). The preparation of platelets was carried out at room temperature. The platelet rich plasma was obtained by centrifugation at 980 rpm for 10 minutes. One tenth (1/10) amount of 77 mM-EDTA-Na (pH 7.4) was added to the platelet rich plasma, and the mixture was centrifuged for 10 minutes at 3000 rpm. The suspension was again centrifuged at 3000 rpm for 10 minutes. The precipitate was further resuspended in a suspension buffer (2) shown in Table 2 to obtain washed platelets. The number of platelets was counted by an automatic blood cell counter (Sysmex Microcellcounter F-800) and the sample was diluted with the suspension buffer to 4×10^8 cells/ml. The platelets, sample solution and labeled compounds were placed into plastic tubes in amounts (volumes) shown in the following Table 3, incubated for 45 minutes at 25° C., and then the mixture was filtered using a cell harvester (Brandel cell harvester M-24R) by a glass fiber filter (Whatman GF/B). After the filter was sufficiently dried, the scintillation was counted by a scintillation counter (Beckman LS5000TD). IC50 was calculated from (binding)/(control binding) ratio in the presence of an antagonist. [table 3: the next 10 blocks are its lines as printed, fixed-width]

The test system of a further assay is rat platelet. Kind of assay: Inhibitory activity of aggregation in rat platelet. The assay is classed as cell-based. To be noted: rat platelet rich plasma, arachidonic acid (final concentration 0.5 mM) as inducer; read-out: C: Inhibitory activity of aggregation in rat platelet (IC50; μM). How it is done:
(3) Inhibitory Activity of Aggregation in Rat Platelet The abdomen of etherized rat was open, and blood was taken from the abdominal arteries, using a sodium citrate solution (final concentration was 0.38%). The blood was centrifuged at 1100 rpm for 10 minutes, and the supernatent was separated as the platelet rich plasma. The plasma was further centrifuged at 2000 rpm for 15 minutes to obtain the supernatent as a platelet poor plasma. The platelet rich plasma (280 μl) was placed in a measuring cuvette and preincubated for 1 minute at 37° C. Then, a sample solution (10 μl) was added. After 2 minutes, an arachidonic acid solution (final concentration=0.5 mM) (10 μl) was added as an inducer. The change in light transmission was recorded for 5 minutes.

Broadly, the IC50 is the midpoint of a concentration-inhibition curve.

Molecules are shown by their SMILES. Structures can show the parent of a compound that is named as a salt.

`CCSCC[C@H](NS(=O)(=O)c1ccc(Br)cc1)C(=O)Nc1ccc(CCC(=O)O)cc1` [Example 246, (S)-2-(4-bromobenzenesulfonylamino)-N-(4-(2-carboxyethyl)phenyl)-4-ethylthio-butanamide] registered an IC50 in assay [1] of 0.034 µM.

Consider `O=C(O)Cc1cccc(NC(=O)C(COC2CCCCO2)NS(=O)(=O)c2ccc(Cl)cc2)c1` (racemic) [Example 45, (RS)-N-(3-(carboxymethyl)phenyl)-2-(4-chlorobenzenesulfonylamino)-3-(tetrahydropyran-2-yloxy)propanamide], for which the IC50 in assay [1] came out at 0.42 µM; in the assay on rat platelet, 3.6 µM.

Consider `CSCC[C@H](NS(=O)(=O)c1ccc(Br)cc1)C(=O)Nc1ccc(CC(=O)O)cc1` [Example 239, (S)-2-(4-bromobenzenesulfonylamino)-N-(4-(carboxymethyl)phenyl)-4-methylthiobutanamide], for which the concentration for half-maximal inhibition (IC50) in assay [1] came out at 0.026 µM; in the assay with rat platelet, 0.055 µM.

Take `O=C(O)Cc1ccc(NC(=O)C(Cc2ccccc2)NS(=O)(=O)c2ccc(Br)cc2)cc1` (racemic) [Example 251, (RS)-2-(4-bromobenzenesulfonylamino)-N-(4-(carboxymethyl)phenyl)-3-phenylpropanamide]: the half-inhibitory concentration (IC50) in assay [1] turned out to be 0.012 µM; with rat platelet, 0.17 µM.

Regarding `CCSCCC(NS(=O)(=O)c1ccc(Cl)cc1)C(=O)Nc1ccc(CC(=O)O)cc1` (racemic) [Example 242, (RS)-N-(4-(carboxymethyl)phenyl)-2-(4-chlorobenzenesulfonylamino)-4-ethylthiobutanamide], the results for the concentration for half-maximal inhibition (IC50) (in assay [1]; with rat platelet) were 0.032 µM and 0.16 µM, respectively.

On to `CSCC[C@@H](NS(=O)(=O)c1ccc(Cl)cc1)C(=O)Nc1ccc(CC(=O)O)cc1` [Example 235, (R)-N-(4-(carboxymethyl)phenyl)-2-(4-chlorobenzenesulfonylamino)-4-methylthiobutanamide], for which the IC50 came to 22 µM in assay [1] and 17.1 µM in the assay with rat platelet.

`O=C(O)Cc1ccc(NC(=O)C(COc2ccccc2)NS(=O)(=O)c2ccc(Br)cc2)cc1` (racemic) [Example 142, (RS)-2-(4-bromobenzenesulfonylamino)-N-(4-(carboxymethyl)phenyl)-3-phenoxypropanamide]: the results for the IC50 (in assay [1]; with rat platelet) were 0.024 µM and 0.53 µM, respectively.

Consider `O=C(O)Cc1ccc(NC(=O)C(Cn2ccnc2)NS(=O)(=O)c2ccc(Br)cc2)cc1` (racemic) [Example 104, (RS)-2-(4-bromobenzenesulfonylamino)-N-(4-(carboxymethyl)phenyl)-3-(1H-imidazol-1-yl)propanamide], for which the concentration for half-maximal inhibition (IC50) in assay [1] was found to be 0.18 µM; in the assay on rat platelet, 1.7 µM.

Regarding `O=C(O)CCCCNC(=O)C(COc1cccnc1)NS(=O)(=O)c1ccc(Cl)cc1` (racemic) [Example 119, (RS)-N-(4-carboxybutyl)-2-(4-chlorobenzenesulfonylamino)-3-(pyridin-3-yloxy)propanamide hydrochloride], the half-maximal inhibitory concentration (IC50) in the assay with rat platelet amounted to 1.7 µM.

In the case of `O=C(O)CCCNC(=O)C(COC1CCCCO1)NS(=O)(=O)c1ccc(Cl)cc1` (racemic) [Example 47, (RS)-N-(3-carboxypropyl)-2-(4-chlorobenzenesulfonylamino)-3-(tetrahydropyran-2-yloxy)propanamide], in the assay on rat platelet, the concentration for half-maximal inhibition (IC50) turned out to be 1.5 µM.

In the case of `CCCCCCC(NS(=O)(=O)c1ccc(Cl)cc1)C(=O)Nc1ccc(CC(=O)O)cc1` (racemic) [Example 230, (RS)-N-(4-(carboxymethyl)phenyl)-2-(4-chlorobenzenesulfonylamino)octanamide], the IC50 with rat platelet turned out to be 0.55 µM.

As to `CCSCC[C@H](NS(=O)(=O)c1ccc(Br)cc1)C(=O)Nc1ccc(CC(=O)O)cc1` [Example 245, (S)-2-(4-bromobenzenesulfonylamino)-N-(4-(carboxymethyl)phenyl)-4-ethylthiobutanamide], in the assay with rat platelet, the half-maximal inhibitory concentration (IC50) turned out to be 0.055 µM.

For the compound `O=C(O)CCCCNC(=O)C(COC1CCCCO1)NS(=O)(=O)c1ccc(Cl)cc1` (racemic) [Example 48, (RS)-N-(4-carboxybutyl)-2-(4-chlorobenzenesulfonylamino)-3-(tetrahydropyran-2-yloxy)propanamide], in the assay on rat platelet, the IC50 came to 1.7 µM.

`CCSCC[C@H](NS(=O)(=O)c1ccc(Cl)cc1)C(=O)Nc1ccc(CC(=O)O)cc1` [Example 243, (S)-N-(4-(carboxymethyl)phenyl)-2-(4-chlorobenzenesulfonylamino)-4-ethylthiobutanamide]: the IC50 with rat platelet stood at 0.17 µM.

`O=C(O)CCCCCNC(=O)C(Cn1ccnc1)NS(=O)(=O)c1ccc(Cl)cc1` (racemic) [Example 100, (RS)-N-(5-carboxypentyl)-2-(4-chlorobenzenesulfonylamino)-3-(1H-imidazol-1-yl)propanamide hydrochloride]: the concentration for half-maximal inhibition (IC50) in the assay with rat platelet amounted to 1.7 µM.

In turn, `CCCC[C@H](NS(=O)(=O)c1ccc(Br)cc1)C(=O)Nc1ccc(CCC(=O)O)cc1` [Example 228, (S)-2-(4-bromobenzenesulfonylamino)-N-(4-(2-carboxyethyl)phenyl)hexanamide] registered an IC50 in assay [1] of 0.057 µM.

With `O=C(O)Cc1ccc(NC(=O)[C@@H](Cc2ccccc2)NS(=O)(=O)c2ccc(Br)cc2)cc1` [Example 253, (R)-2-(4-bromobenzenesulfonylamino)-N-(4-(carboxymethyl)phenyl)-3-phenylpropanamide], the IC50 in assay [1] turned out to be 1.3 µM.

The compound `CSCCC(NS(=O)(=O)c1ccc(Cl)cc1)C(=O)Nc1ccc(CCC(=O)O)cc1` (racemic) [Example 236, (RS)-N-(4-(2-carboxyethyl)phenyl)-2-(4-chlorobenzenesulfonylamino)-4-methylthiobutanamide] registered a concentration for half-maximal inhibition (IC50) in assay [1] of 0.42 µM.

In the case of `CCC(NS(=O)(=O)c1ccc(Cl)cc1)C(=O)Nc1ccc(CC(=O)O)cc1` (racemic) [Example 220, (RS)-N-(4-(carboxymethyl)phenyl)-2-(4-chlorobenzenesulfonylamino) butanamide], the IC50 with rat platelet amounted to 0.53 µM.

As to `CCCC(NS(=O)(=O)c1ccc(Cl)cc1)C(=O)Nc1ccc(CC(=O)O)cc1` (racemic) [Example 221, (RS)-N-(4-(carboxymethyl)phenyl)-2-(4-chlorobenzenesulfonylamino)pentanamide], in the assay with rat platelet, the IC50 came to 0.53 µM.

Consider `O=C(O)c1ccc(NC(=O)[C@H](Cc2ccccc2)NS(=O)(=O)c2ccc(Br)cc2)cc1` [Example 256, (S)-2-(4-bromobenzenesulfonylamino)-N-(4-carboxyphenyl)-3-phenylpropanamide], for which, in the assay on rat platelet, the IC50 amounted to 0.17 µM.

The compound `CCCC[C@H](NS(=O)(=O)c1ccc(Br)cc1)C(=O)Nc1ccc(CC(=O)O)cc1` [Example 227, (S)-2-(4-bromobenzenesulfonylamino)-N-(4-(carboxymethyl)phenyl)hexanamide] returned an IC50 in assay [1] of 0.045 µM.

`CCCCC(NS(=O)(=O)c1ccc(Cl)cc1)C(=O)Nc1ccc(CC(=O)O)cc1` (racemic) [Example 222, (RS)-N-(4-(carboxymethyl)phenyl)-2-(4-chlorobenzenesulfonylamino)hexanamide]: in the assay with rat platelet, the 50% inhibitory concentration (IC50) came to 0.17 µM.

For the compound `O=C(O)Cc1ccc(NC(=O)[C@H](Cc2c[nH]c3ccccc23)NS(=O)(=O)c2ccc(Cl)cc2)cc1` [Example 258, (S)-N-(4-(carboxymethyl)phenyl)-2-(4-chlorobenzenesulfonylamino)-3-(3-indolyl) propanamide], the 50% inhibitory concentration (IC50) in the assay on rat platelet was 0.53 µM.

For `CCCC[C@H](NS(=O)(=O)c1ccc(Cl)cc1)C(=O)Nc1ccc(CCC(=O)O)cc1` [Example 225, (S)-N-(4-(2-carboxyethyl)phenyl)-2-(4-chlorobenzenesulfonylamino)hexanamide], in the assay on rat platelet, the concentration for half-maximal inhibition (IC50) was determined as 0.56 µM.

In the case of `CC(C)C(NS(=O)(=O)c1ccc(Cl)cc1)C(=O)Nc1ccc(CC(=O)O)cc1` (racemic) [Example 231, (RS)-N-(4-(carboxymethyl)phenyl)-2-(4-chlorobenzenesulfonylamino)-3-methylbutanamide], the half-inhibitory concentration (IC50) in the assay with rat platelet stood at 1.7 µM.

For `O=C(O)CCc1ccc(NC(=O)C(CC2CCCCC2)NS(=O)(=O)c2ccc(Cl)cc2)cc1` (racemic) [Example 261, (RS)-N-(4-(2-carboxyethyl)phenyl)-2-(4-chlorobenzenesulfonylamino)-3-cyclohexylpropanamide], in the assay on rat platelet, the IC50 came to 2.3 µM.
